According to article PMC10508830 (Antiviral research, 2023):

Biological target: NA of A/Alabama/03/2020 A(H1N1)pdm09 (H275Y) (Influenza A virus, UniProt A0A0X9QTS2, H275Y)
Format: biochemical
Conditions: for IC50: read-out: Mean IC50 ± SD

oseltamivir carboxylate
IC50: 230 nM

peramivir
IC50 fold-change: 15.25 ± 2.11 (254) fold | IC50: 15.2 nM
